From patent publication US4356183A, “Antihypertensive 4-thiazolidinecarboxylic acids (pyridyl derivatives)” (Santen Pharmaceutical Co., Ltd., priority 1978, dated 1982)
pIC50: −log10 of the molar value.

Molecular target: T1, angiotensin I-converting enzyme (Oryctolagus cuniculus, UniProt P12822)
T1 construct: angiotensin I-converting enzyme extracted from rabbit lung; from tissue; host or cells: rabbit lung
T1 sequence (P12822 34-1310): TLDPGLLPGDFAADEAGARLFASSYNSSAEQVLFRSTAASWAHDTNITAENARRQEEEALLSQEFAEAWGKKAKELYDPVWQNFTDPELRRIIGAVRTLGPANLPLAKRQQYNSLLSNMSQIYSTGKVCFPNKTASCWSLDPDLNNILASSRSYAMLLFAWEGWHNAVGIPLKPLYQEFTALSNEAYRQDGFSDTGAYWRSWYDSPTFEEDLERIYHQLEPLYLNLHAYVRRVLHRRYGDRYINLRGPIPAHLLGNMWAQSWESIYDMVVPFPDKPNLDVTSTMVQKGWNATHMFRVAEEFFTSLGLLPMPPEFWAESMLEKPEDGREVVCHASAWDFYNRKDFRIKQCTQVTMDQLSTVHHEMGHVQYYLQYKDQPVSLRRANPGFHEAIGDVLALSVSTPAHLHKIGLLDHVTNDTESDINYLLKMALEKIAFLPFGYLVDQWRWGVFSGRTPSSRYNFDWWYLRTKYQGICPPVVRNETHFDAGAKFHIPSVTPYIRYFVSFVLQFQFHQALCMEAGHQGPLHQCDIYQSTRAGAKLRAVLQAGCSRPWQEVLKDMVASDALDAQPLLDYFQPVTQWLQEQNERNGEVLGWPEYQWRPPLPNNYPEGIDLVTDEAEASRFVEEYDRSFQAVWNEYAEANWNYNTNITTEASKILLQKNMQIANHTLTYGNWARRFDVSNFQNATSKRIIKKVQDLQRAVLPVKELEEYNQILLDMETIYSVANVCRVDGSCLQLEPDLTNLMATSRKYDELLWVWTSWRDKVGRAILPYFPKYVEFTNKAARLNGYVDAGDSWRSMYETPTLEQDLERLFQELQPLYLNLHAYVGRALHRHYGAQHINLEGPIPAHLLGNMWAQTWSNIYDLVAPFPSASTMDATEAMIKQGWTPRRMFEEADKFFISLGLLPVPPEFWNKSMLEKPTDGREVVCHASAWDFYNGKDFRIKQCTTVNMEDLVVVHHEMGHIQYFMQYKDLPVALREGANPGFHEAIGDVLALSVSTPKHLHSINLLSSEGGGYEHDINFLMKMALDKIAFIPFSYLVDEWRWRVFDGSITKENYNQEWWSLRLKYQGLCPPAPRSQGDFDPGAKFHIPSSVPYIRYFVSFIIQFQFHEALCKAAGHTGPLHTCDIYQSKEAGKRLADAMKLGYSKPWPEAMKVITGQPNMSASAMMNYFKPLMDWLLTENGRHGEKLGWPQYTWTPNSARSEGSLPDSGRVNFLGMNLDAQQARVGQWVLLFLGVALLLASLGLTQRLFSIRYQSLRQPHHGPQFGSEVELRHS
Test: Inhibition of angiotensin I-converting enzyme by spectrophotometry (HHL substrate)
Assay type: biochemical
Details: enzyme from rabbit lung; 5 mM HHL; pH 8.3; 37° C., 30 min

pIC50 | SMILES
6.66 | C[C@H](CS)C(=O)N1C(c2ccccc2O)SC[C@H]1C(=O)O (some centres unmarked) [Compound 50]
6.72 | COc1ccc(C2SC[C@@H](C(=O)O)N2C(=O)[C@H](C)CS)c(O)c1 (some centres unmarked) [Compound 77]
